Earlier results on three molecules are cited in patent US10314839B2, “Diversion-resistant opioid formulations” (priority 2014, dated 2019).

Counter-ions that a name gives are not always drawn.

Data set [1] has as its system opioid receptor. Particulars: after oral doses.
For data set [2] the following is noted: hydrochloride salt.
Data set [3] relates to mu over delta receptor sub-types.
Data set [4] concerns opioid receptor.

As to `C[C@H]1[C@H]2Cc3ccc(O)cc3[C@]1(C)CCN2CC1CC1` [cyclazocine], in the data set on opioid receptor [1], the Duration of action was ~24 h.
`O=C1CC[C@@]2(O)[C@H]3Cc4ccc(O)c5c4[C@@]2(CCN3CC2CC2)[C@H]1O5` [hydrochloride salt of naltrexone, naltrexone]: the Solubility in water entry in data set [2] was “up to 100 mg/mL”.
In the case of `O=C1CC[C@@]2(O)[C@H]3Cc4ccc(O)c5c4[C@@]2(CCN3CC2CC2)[C@H]1O5` [naltrexone], the Duration of action in the data set on opioid receptor [1] was ~24 h. Moreover, the Protein binding entry (in vivo) was “approximately 21%”. The Oral bioavailability (oral administration) is 5-40%. The “Preferential blocking action between receptor sub-types” value in data set [3] is given as “strong preferential blocking action against mu over delta receptor sub-types”. Moreover, in the data set on opioid receptor [4], the “Opioid agonist effects / properties” value is listed as “no opioid agonist properties”.
